Assay results: the supplement of paper PMC10307832

Legend:
Experiment in all cases: relative viability (nuclei count vs DMSO), 5 days (fraction); higher = more cells survive
XMD8-85 + Bortezomib = compound: CN1CCN(CC1)C2=CC(=C(C=C2)NC3=NC=C4C(=N3)N(C5=CC=CC=C5C(=O)N4C)C)OC [XMD8-85] + CC(C)C[C@H](NC(=O)[C@H](Cc1ccccc1)NC(=O)c1cnccn1)B(O)O [Bortezomib] (partner 0.002 µM)
Procedure, shortened: (§1)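 For relative viability, nuclei counts in treated wells were divided by those in vehicle wells. Lung cancer cell lines had been pin-tool dosed in 1536-well plates the day after seeding and cultured for 5 days, then fixed and stained in one step (final 0.05% Triton X-100, 1% formaldehyde, 1 ug/ml Hoechst) and imaged at 4×. Doses were one drug alone or a fixed anchor-drug dose plus five library-drug doses (not always all listed) in √10 steps, and values are duplicate-plate medians.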

XMD8-85 + Pictilisib = compound: CN1CCN(CC1)C2=CC(=C(C=C2)NC3=NC=C4C(=N3)N(C5=CC=CC=C5C(=O)N4C)C)OC [XMD8-85] + CS(=O)(=O)N1CCN(Cc2cc3nc(-c4cccc5[nH]ncc45)nc(N4CCOCC4)c3s2)CC1 [Pictilisib] (partner 1 µM)
Procedure, shortened: as §1

XMD8-85 + Olaparib = compound: CN1CCN(CC1)C2=CC(=C(C=C2)NC3=NC=C4C(=N3)N(C5=CC=CC=C5C(=O)N4C)C)OC [XMD8-85] + O=C(c1cc(Cc2n[nH]c(=O)c3ccccc23)ccc1F)N1CCN(C(=O)C2CC2)CC1 [Olaparib] (partner 8 µM)
Procedure, shortened: as §1

4EGI-1 + Dasatinib = compound: O=C(O)C(Cc1ccccc1[N+](=O)[O-])=NNc1nc(-c2ccc(Cl)c(Cl)c2)cs1 (mixture of isomers) [4EGI-1] + Cc1nc(Nc2ncc(C(=O)Nc3c(C)cccc3Cl)s2)cc(N2CCN(CCO)CC2)n1 [Dasatinib] (partner 0.075 µM)
Procedure, shortened: as §1

Cell Line	relative viability (XMD8-85 + Bortezomib; first compound 0.08 µM)	relative viability (XMD8-85 + Bortezomib; first compound 0.253 µM)	relative viability (XMD8-85 + Bortezomib; first compound 0.8 µM)	relative viability (XMD8-85 + Bortezomib; first compound 2.53 µM)	relative viability (XMD8-85 + Bortezomib; first compound 8 µM)	relative viability (XMD8-85 + Pictilisib; first compound 0.08 µM)	relative viability (XMD8-85 + Pictilisib; first compound 0.253 µM)	relative viability (XMD8-85 + Pictilisib; first compound 0.8 µM)	relative viability (XMD8-85 + Pictilisib; first compound 2.53 µM)	relative viability (XMD8-85 + Pictilisib; first compound 8 µM)	relative viability (XMD8-85 + Olaparib; first compound 0.08 µM)	relative viability (XMD8-85 + Olaparib; first compound 0.253 µM)	relative viability (XMD8-85 + Olaparib; first compound 0.8 µM)	relative viability (XMD8-85 + Olaparib; first compound 2.53 µM)	relative viability (XMD8-85 + Olaparib; first compound 8 µM)	relative viability (4EGI-1 + Dasatinib; first compound 0.5 µM)	relative viability (4EGI-1 + Dasatinib; first compound 1.581 µM)	relative viability (4EGI-1 + Dasatinib; first compound 5 µM)	relative viability (4EGI-1 + Dasatinib; first compound 15.81 µM)	relative viability (4EGI-1 + Dasatinib; first compound 50 µM)
NCI-H1975	0.443	0.36	0.378	0.297	0.222	0.322	0.257	0.267	0.29	0.242	0.774	0.784	0.88	0.711	0.376	0.372	0.363	0.302	0.282	0.249
NCI-H1703	0.28	0.267	0.306	0.345	0.196	0.236	0.234	0.269	0.229	0.196	0.308		0.427	0.42	0.312					
201T	1.08	1.06	1.1	1.07	0.917	0.635	0.677	0.723	0.746	0.556	0.889	0.811	0.886	0.866	0.73	0.574	0.551	0.581	0.568	0.318
LK-2						0.531	0.439	0.574	0.361	0.458	0.802	0.815	0.555	0.669	0.448	0.253		0.309	0.254	0.134
HCC-78	0.639	0.455	0.375	0.495	0.316	0.267	0.22	0.228	0.206	0.192	0.916	0.843	0.99	0.814	0.775	0.41		0.383	0.34	0.357
EMC-BAC-2	1.06	1.05	1.1	1.16	0.965	0.493	0.569	0.527	0.589	0.451	0.498	0.465	0.487	0.477	0.417	0.369	0.298	0.361	0.362	0.296
NCI-H2023	0.881	0.992	1.07	1.13	0.575	0.199	0.274	0.259	0.265	0.178	0.42	0.452	0.508	0.487	0.285	0.599		0.605	0.226	0.0859
SK-MES-1						0.349	0.371	0.342	0.383	0.375	0.819	0.683		0.707	0.408	0.479	0.312	0.34	0.356	0.198
IA-LM	0.814		0.836		0.163	0.342	0.187	0.334	0.193	0.143	0.862	0.885	0.836	1.07	0.207					
NCI-H1563	0.848	0.855		0.839	0.645	0.703	0.652	0.646	0.663	0.62						0.441	0.435	0.441	0.494	0.424
SW 900											0.824	0.705	1.15	0.786	0.376	0.641		0.528	0.487	0.547
NCI-H2170						0.26	0.341	0.335	0.305	0.289	0.51	0.627	0.599	0.601	0.532	0.676	0.504	0.628	0.473	0.173
NCI-H1395						0.699	0.649	0.634	0.613	0.484	0.421	0.426	0.43	0.474	0.452	0.423	0.471	0.436	0.442	0.32
NCI-H522											0.699	0.632	0.615	0.537	0.568	1.02	0.735	0.858	0.893	0.556
HCC-44	0.938	0.911	0.816	0.962	0.679	0.616	0.548	0.767	0.783	0.452	0.991	0.955	0.946	0.996	0.849					
EBC-1	0.551	0.472	0.434	0.297	0.329	0.383	0.364	0.502	0.339	0.18	0.649	0.693	0.679	0.567	0.346					
NCI-H1944						0.326	0.332	0.351	0.333	0.307	0.39	0.393	0.44	0.402	0.338	0.22		0.199	0.172	0.135
NCI-H1623																0.507	0.446	0.575	0.437	0.414
NCI-H1648											0.857	1.14	0.919	0.482	0.861					
NCI-H2342											0.421	0.466	0.359	0.487	0.408	0.299	0.3	0.292	0.292	0.257
Calu-6	1.16	0.973	1.04	1.05	0.78	1.02	0.97	1.05	0.979	0.572	0.621	0.574	0.596	0.558	0.395					
NCI-H1793						0.389	0.248	0.44	0.405	0.38		0.574	0.71	1.02	0.66	0.349	0.364	0.38	0.374	0.347
